Reference: patent US20100267706A1, “Compounds, Compositions and Methods Comprising Pyridazine Derivatives” (Institute for OneWorld Health, priority 2009, published 2010)

target: T1, CFTR (Homo sapiens, UniProt P13569); assay: T84 assay (FLIPR membrane potential, forskolin/IBMX-stimulated CFTR channel activity); type: cell-based; settings: Human colonic T84 cells; average of at least 2 runs unless annotated n = 1
T1 construct: host or cells: Human colonic T84 cells
Protocol: (§1) For example, Human colonic T84 cells can be acquired from the European Collection of Cell Cultures (ECACC) and grown in standard culture conditions as described by the supplier. On the day before assay 25,000 T84 cells per well are plated into standard black walled, clear bottom 384-well assay plates in standard growth medium consisting of DMEM:F12 with 10% FBS and incubated overnight. On the day of the assay the plates are washed using a standard assay buffer (HBSS with 10 mM Hepes) and incubated for 15 minutes in serum free cell culture medium before the addition of a commercially available membrane potential sensitive fluorescent dye (FLIPR Red membrane potential dye, Molecular Devices Corporation). T84 cells are incubated with the FLIPR Red membrane potential dye for 45 minutes in the presence and absence of test compound before being transferred to a commercially available fluorescence imaging plate reader (FLIPR384, Molecular Devices Corporation). Fluorescence levels are monitored continuously every second for 150 seconds; after an initial 10 second baseline, CFTR channel activity is stimulated through the addition of 10 μM forskolin in the presence of 100 μM of the phosphodiesterase inhibitor iso-butyl-methylxanthine (IBMX). Addition of the forskolin leads to the activation of intracellular adenylyl cylase 1, elevating cAMP levels and results in the phosphorylation and opening of CFTR anion channels. CFTR channel opening causes chloride ion efflux and subsequent depolarization of the cells, which is measured by an increase in fluorescence. CFTR inhibitor compounds prevent cell depolarization and the associated increase in fluorescence.
as §1, with “Human colonic” for “For example, Human colonic”, “T84 cells are acquired from” for “T84 cells can be acquired from”, “(ECACC) and are grown in” for “(ECACC) and grown in”

T1 sequence (P13569 whole entry): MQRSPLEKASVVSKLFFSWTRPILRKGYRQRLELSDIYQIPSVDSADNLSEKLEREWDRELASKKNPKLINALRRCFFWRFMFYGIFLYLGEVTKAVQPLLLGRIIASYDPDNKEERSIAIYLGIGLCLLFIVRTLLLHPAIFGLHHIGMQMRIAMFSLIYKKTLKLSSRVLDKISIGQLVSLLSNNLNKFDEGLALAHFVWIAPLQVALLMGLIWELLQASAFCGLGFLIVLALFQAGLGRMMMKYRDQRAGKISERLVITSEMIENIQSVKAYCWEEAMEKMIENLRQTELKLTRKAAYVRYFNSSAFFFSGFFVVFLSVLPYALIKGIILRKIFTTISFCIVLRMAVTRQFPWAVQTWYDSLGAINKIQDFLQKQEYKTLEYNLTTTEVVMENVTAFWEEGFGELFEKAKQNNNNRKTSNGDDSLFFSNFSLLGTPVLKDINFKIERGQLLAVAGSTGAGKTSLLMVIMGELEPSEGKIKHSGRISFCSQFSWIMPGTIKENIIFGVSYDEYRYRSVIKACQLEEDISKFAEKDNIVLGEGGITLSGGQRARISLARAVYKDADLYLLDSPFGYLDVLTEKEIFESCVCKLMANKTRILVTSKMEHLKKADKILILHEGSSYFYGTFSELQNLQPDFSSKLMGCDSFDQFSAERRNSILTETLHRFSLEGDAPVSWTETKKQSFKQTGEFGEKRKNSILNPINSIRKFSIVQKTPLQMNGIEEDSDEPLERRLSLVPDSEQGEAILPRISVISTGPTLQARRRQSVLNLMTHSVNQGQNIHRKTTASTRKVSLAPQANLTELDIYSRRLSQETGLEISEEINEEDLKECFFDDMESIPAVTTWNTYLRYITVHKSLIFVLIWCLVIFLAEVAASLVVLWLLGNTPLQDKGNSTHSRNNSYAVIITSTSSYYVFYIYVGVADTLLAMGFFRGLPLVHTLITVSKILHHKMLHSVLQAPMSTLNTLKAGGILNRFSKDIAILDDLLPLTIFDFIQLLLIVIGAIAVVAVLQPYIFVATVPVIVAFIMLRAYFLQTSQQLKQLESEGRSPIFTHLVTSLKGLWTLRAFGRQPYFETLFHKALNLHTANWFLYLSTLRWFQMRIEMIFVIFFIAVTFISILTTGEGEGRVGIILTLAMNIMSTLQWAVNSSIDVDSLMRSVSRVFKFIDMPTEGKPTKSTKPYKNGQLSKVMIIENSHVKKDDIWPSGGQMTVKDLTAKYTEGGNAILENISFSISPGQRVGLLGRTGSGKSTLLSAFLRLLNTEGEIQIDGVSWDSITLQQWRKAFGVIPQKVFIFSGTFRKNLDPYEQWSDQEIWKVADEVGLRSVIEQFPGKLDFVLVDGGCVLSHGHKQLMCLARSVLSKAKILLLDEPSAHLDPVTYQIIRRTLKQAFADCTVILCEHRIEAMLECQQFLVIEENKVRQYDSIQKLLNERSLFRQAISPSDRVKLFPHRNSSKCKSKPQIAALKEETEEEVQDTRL

Structure (SMILES)	IC50 [µM]
Oc1c(Cl)cc(-c2cc(N3CCN(Cc4cccc(C(F)(F)F)c4)CC3)c(OCCc3ccc(Cl)cc3)nn2)cc1Cl [Compound 1, 2,6-dichloro-4-(6-(4-chlorophenethoxy)-5-(4-(3-(trifluoromethyl)benzyl)piperazin-1-yl)pyridazin-3-yl)phenol]	27
CN(C)CCCOc1ccc(CN2CCN(c3cc(-c4cc(Cl)c(O)c(Cl)c4)nnc3OCCc3ccc(Cl)cc3)CC2)cc1 [Compound 2, 2,6-Dichloro-4-(6-(4-chlorophenethoxy)-5-(4-(4-(3-(dimethylamino)propoxy)benzyl)piperazin-1-yl)pyridazin-3-yl)phenol]	1.8
O=C(Cc1ccccn1)N1CCN(c2cc(-c3cc(Cl)c(O)c(Cl)c3)nnc2OCCc2ccc(Cl)cc2)CC1 [Compound 3, 1-(4-(3-(4-Chlorophenethoxy)-6-(3,5-dichloro-4-hydroxyphenyl)pyridazin-4-yl)piperazin-1-yl)-2-(pyridin-2-yl)ethanone]	18.1
CS(=O)(=O)Nc1ccc(CNC(=O)c2cc(-c3cc(Cl)c(O)c(Cl)c3)nnc2OCCc2ccc(Cl)cc2)cc1 [Compound 4, 3-(4-Chlorophenethoxy)-6-(3,5-dichloro-4-hydroxyphenyl)-N-(4-(methylsulfonamido)benzyl)pyridazine-4-carboxamide]	17.5
CCN1CCN(c2cc(-c3cc(Cl)c(O)c(Cl)c3)nnc2OCCc2ccc(Cl)cc2)CC1 [Compound 5, 2,6-dichloro-4-(6-(4-chlorophenethoxy)-5-(4-ethylpiperazin-1-yl)pyridazin-3-yl)phenol]	15.8
O=C(NCc1cccc(C(F)(F)F)c1)c1cc(-c2cc(Cl)c(O)c(Cl)c2)nnc1OCCc1ccc(Cl)cc1 [Compound 6, 3-(4-chlorophenethoxy)-6-(3,5-dichloro-4-hydroxyphenyl)-N-(3-(trifluoromethyl)benzyl)pyridazine-4-carboxamide]	24.7
O=C(NCc1ccc(C(F)(F)F)cc1)c1cc(-c2cc(Cl)c(O)c(Cl)c2)nnc1OCCc1ccc(Cl)cc1 [Compound 7, 3-(4-chlorophenethoxy)-6-(3,5-dichloro-4-hydroxyphenyl)-N-(4-(trifluoromethyl)benzyl)pyridazine-4-carboxamide]	16.5
O=C(NCc1cc(F)cc(F)c1)c1cc(-c2cc(Cl)c(O)c(Cl)c2)nnc1OCCc1ccc(Cl)cc1 [Compound 8, 3-(4-chlorophenethoxy)-6-(3,5-dichloro-4-hydroxyphenyl)-N-(3,5-difluorobenzyl)pyridazine-4-carboxamide]	13
O=C(NCc1cc(F)c(F)c(F)c1)c1cc(-c2cc(Cl)c(O)c(Cl)c2)nnc1OCCc1ccc(Cl)cc1 [Compound 9, 3-(4-chlorophenethoxy)-6-(3,5-dichloro-4-hydroxyphenyl)-N-(3,4,5-trifluorobenzyl)pyridazine-4-carboxamide]	8.06
O=C(c1cc(-c2cc(Cl)c(O)c(Cl)c2)nnc1OCCc1ccc(Cl)cc1)N(CCO)Cc1ccc(F)cc1 [Compound 10, 3-(4-chlorophenethoxy)-6-(3,5-dichloro-4-hydroxyphenyl)-N-(4-fluorobenzyl)-N-(2-hydroxyethyl)pyridazine-4-carboxamide]	12.1
O=C(c1cc(-c2cc(Cl)c(O)c(Cl)c2)nnc1OCCc1ccc(Cl)cc1)N(CCO)Cc1ccccc1Cl [Compound 12, N-(2-chlorobenzyl)-3-(4-chlorophenethoxy)-6-(3,5-dichloro-4-hydroxyphenyl)-N-(2-hydroxyethyl)pyridazine-4-carboxamide]	10.3
CCCN(CCO)C(=O)c1cc(-c2cc(Cl)c(O)c(Cl)c2)nnc1OCCc1ccc(Cl)cc1 [Compound 13, 3-(4-chlorophenethoxy)-6-(3,5-dichloro-4-hydroxyphenyl)-N-(2-hydroxyethyl)-N-propylpyridazine-4-carboxamide]	28.6
Oc1c(Cl)cc(-c2cc(N3CCN(Cc4ccc(OCCN5CCOCC5)cc4)CC3)c(OCCc3ccc(Cl)cc3)nn2)cc1Cl [Compound 14, 2,6-dichloro-4-(6-(4-chlorophenethoxy)-5-(4-(4-(2-morpholinoethoxy)benzyl)piperazin-1-yl)pyridazin-3-yl)phenol]	9.45
CN(C)CCOc1ccc(CN2CCN(c3cc(-c4cc(Cl)c(O)c(Cl)c4)nnc3OCCc3ccc(Cl)cc3)CC2)cc1 [Compound 15, 2,6-dichloro-4-(6-(4-chlorophenethoxy)-5-(4-(4-(2-(dimethylamino)ethoxy)benzyl)piperazin-1-yl)pyridazin-3-yl)phenol]	3.05
CN(C)CCCOc1cccc(CN2CCN(c3cc(-c4cc(Cl)c(O)c(Cl)c4)nnc3OCCc3ccc(Cl)cc3)CC2)c1 [Compound 16, 2,6-dichloro-4-(6-(4-chlorophenethoxy)-5-(4-(3-(3-(dimethylamino)propoxy)benzyl)piperazin-1-yl)pyridazin-3-yl)phenol]	9.85
CN(C)CCCOc1ccccc1CN1CCN(c2cc(-c3cc(Cl)c(O)c(Cl)c3)nnc2OCCc2ccc(Cl)cc2)CC1 [Compound 17, 2,6-dichloro-4-(6-(4-chlorophenethoxy)-5-(4-(2-(3-(dimethylamino)propoxy)benzyl)piperazin-1-yl)pyridazin-3-yl)phenol]	3.8
Oc1c(Cl)cc(-c2cc(N3CCN(Cc4ccc(OCCCN5CCC(F)(F)CC5)cc4)CC3)c(OCCc3ccc(Cl)cc3)nn2)cc1Cl [Compound 18, 2,6-dichloro-4-(6-(4-chlorophenethoxy)-5-(4-(4-(3-(4,4-difluoropiperidin-1-yl)propoxy)benzyl)piperazin-1-yl)pyridazin-3-yl)phenol]	7.5
Oc1c(Cl)cc(-c2cc(N3CCN(Cc4ccc(OCCCN5CCSCC5)cc4)CC3)c(OCCc3ccc(Cl)cc3)nn2)cc1Cl [Compound 19, 2,6-dichloro-4-(6-(4-chlorophenethoxy)-5-(4-(4-(3-thiomorpholinopropoxy)benzyl)piperazin-1-yl)pyridazin-3-yl)phenol]	17
CCN(Cc1ccccc1)C(=O)c1cc(-c2cc(Cl)c(O)c(Cl)c2)nnc1N(CC)Cc1ccccc1 [Compound 20, N-benzyl-3-(benzyl(ethyl)amino)-6-(3,5-dichloro-4-hydroxyphenyl)-N-ethylpyridazine-4-carboxamide]	12
NC(=O)C1CCN(CCCOc2ccc(CN3CCN(c4cc(-c5cc(Cl)c(O)c(Cl)c5)nnc4OCCc4ccc(Cl)cc4)CC3)cc2)CC1 [Compound 21, 1-(3-(4-((4-(3-(4-chlorophenethoxy)-6-(3,5-dichloro-4-hydroxyphenyl)pyridazin-4-yl)piperazin-1-yl)methyl)phenoxy)propyl)piperidine-4-carboxamide]	7.33
CN1CCN(CCOc2ccc(CN3CCN(c4cc(-c5cc(Cl)c(O)c(Cl)c5)nnc4OCCc4ccc(Cl)cc4)CC3)cc2)CC1 [Compound 22, 2,6-dichloro-4-(6-(4-chlorophenethoxy)-5-(4-(4-(2-(4-methylpiperazin-1-yl)ethoxy)benzyl)piperazin-1-yl)pyridazin-3-yl)phenol]	13.2
COc1cc(CN2CCN(c3cc(-c4cc(Cl)c(O)c(Cl)c4)nnc3OCCc3ccc(Cl)cc3)CC2)ccc1OCCN1CCN(C)CC1 [Compound 23, 2,6-dichloro-4-(6-(4-chlorophenethoxy)-5-(4-(3-methoxy-4-(2-(4-methylpiperazin-1-yl)ethoxy)benzyl)piperazin-1-yl)pyridazin-3-yl)phenol]	2.33
